The source of these data is patent US11286268B1, “EIF4E-inhibiting compounds and methods” (EFFECTOR THERAPEUTICS, INC., priority 2019, dated 2022).

Like-named read-outs stand apart in the source and are kept apart here. Bounds are passed on as bounds.

The target of this assay is recombinant eIF4E (Homo sapiens (Human), UniProt P06730). The experiment in a line: Fluorescence polarization competition assay for eIF4E binding potency. In a few lines: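 Competition of test compound against 20 nM EDA-m^7GDP-ATTO-550 for 75 nM recombinant eIF4E, pre-incubated 5 min, in 20 mM Tris pH 7.5, 100 mM NaCl, 1 mM DTT, 0.02% Tween-20, 1% DMSO. Equilibrated 30 min at room temperature, dark; fluorescence polarization read. IC50 from 8-point, 3-fold dilution series.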
On the technique in general: Fluorescence polarisation rises when a labelled molecule tumbles more slowly, as on binding a larger partner.

Setting [1] is: fluorescence polarization competition, 75 nM recombinant eIF4E, 20 nM EDA-m7GDP-ATTO-550, IC50 class, read-out: elF4E FP.
[2] abbreviates: inhibition of eIF4E/EDA-m7GDP-ATTO-550 binding by 50%, Table 4B calculated values, read-out: IC50.
Setting [3] is: inhibition of eIF4E/EDA-m7GDP-ATTO-550 binding, calculated IC50 values, Table 4B, read-out: IC50.

Sequence of recombinant eIF4E (P06730 whole entry): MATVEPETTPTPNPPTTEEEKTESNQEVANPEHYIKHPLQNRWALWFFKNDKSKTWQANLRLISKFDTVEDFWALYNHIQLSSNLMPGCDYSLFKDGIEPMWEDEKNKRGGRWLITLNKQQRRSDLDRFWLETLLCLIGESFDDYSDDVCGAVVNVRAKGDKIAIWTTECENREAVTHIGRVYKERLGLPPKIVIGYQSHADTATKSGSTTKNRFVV

Regarding `Cc1nc2cc(CN(C)C)c(OC(F)F)c(C#N)c2c(=O)n1CCOc1ccc(Cl)cc1-c1ccnc2c(C(=O)O)csc12` [compound 458], the IC50 reads like this: under setting [1], below 50 nM; under setting [2], 36.8 nM. In the case of `Cc1nc2c(C#N)ccc(C#N)c2c(=O)n1CCOc1ccc(Cl)cc1-c1ccnc2c(C(=O)O)csc12` [compound 312], the IC50 was 50 to 1000 nM under setting [1] and 75.6 nM under setting [2]. In the case of `Cc1nc2cnc(N3CCN(C)CC3)c(C#N)c2c(=O)n1CCOc1ccc(Cl)cc1-c1ccnc2c(C(=O)O)csc12` [compound 707], the IC50 reads like this: under setting [1], below 50 nM; under setting [2], 17.8 nM. As to `Cc1c(Cl)c2cc(C(F)(F)F)cc(C#N)c2c(=O)n1CCOc1ccc(Cl)cc1-c1ccnc2c(C(=O)O)csc12` [compound 218], the IC50 runs as follows: under setting [1], below 50 nM; under setting [2], 16.9 nM.

As for `Cc1nc2cnc(N3CCN(C4(CC(F)(F)F)CC4)CC3)c(C#N)c2c(=O)n1CCOc1ccc(Cl)cc1-c1ccnc2c(C(=O)O)csc12` [compound 1361], the IC50 under setting [3] was 21.3 nM. With `N#Cc1cc2c(=O)n(CCOc3ccc(Cl)cc3-c3cc(CCO)cc(C(=O)O)c3)cnc2cn1` [compound 106], the IC50 by setting is: under setting [1], above 1000 nM; under setting [2], 1380 nM. For the compound `Cc1nc2cnc(N3CC4CC3CN4C)c(C#N)c2c(=O)n1CCOc1ccc(Cl)cc1-c1ccnc2c(C(=O)O)csc12` (centres unmarked) [compound 1645], under setting [3], the IC50 was 23.2 nM. On the same count and under the same terms, the same measure for `Cc1nc2cnc(N(C)C3CCN(CCF)CC3)c(C#N)c2c(=O)n1CC#Cc1ccc(Cl)cc1-c1ccnc2c(C(=O)O)csc12` [compound 1653]: 26.5 nM. For `Cc1cc(-c2cc(Cl)ccc2OCCn2c(C)nc3cc(Cl)c(-c4ncco4)c(C#N)c3c2=O)c2scc(C(=O)O)c2n1` [compound 1006], the IC50 under setting [1] is below 50 nM and the IC50 under setting [2] was 18.2 nM. As for `Cc1nc2cnc(N(C)C3CCN(C4CC(F)(F)C4)CC3)c(C#N)c2c(=O)n1CC#Cc1ccc(Cl)cc1-c1ccnc2c(C(=O)NS(=O)(=O)CC(F)F)csc12` [compound 1819], the IC50 under setting [3] was 4.4 nM. With `Cc1cc(-c2cc(Cl)ccc2OCCn2c(C)nc3cc(C(F)(F)F)c(N4CCN(C5COC5)CC4)c(C#N)c3c2=O)c2scc(C(=O)O)c2n1` [compound 1242], the IC50 was below 50 nM under setting [1] and 8.85 nM under setting [3]. On to `Cc1nc2cnc(N(C)C3CCN(CC(F)(F)F)CC3)c(C#N)c2c(=O)n1CC#Cc1ccc(Cl)cc1-c1ccnc2c(C(=O)NS(=O)(=O)CC(F)F)csc12` [compound 1539], for which, under setting [3], the IC50 is 12.5 nM.

As for `COc1c(Cl)cc(-c2cc(Cl)ccc2OCCn2cnc3cnc(C#N)cc3c2=O)cc1C(=O)O` [compound 108], the IC50 under setting [1] is above 1000 nM and the IC50 under setting [2] is 11200 nM.

On to `Cc1nc2cc(C(F)(F)F)cc(Br)c2c(=O)n1CCOc1ccc(Cl)cc1-c1ccnc2c(C(=O)O)csc12` [compound 305], for which the IC50 is, setting by setting: under setting [1], 50 to 1000 nM; under setting [2], 431 nM. On to `Cc1cc(-c2cc(Cl)ccc2OCCn2c(C)nc3cc(Cl)c(N4CC5(CCC5)C4)c(C#N)c3c2=O)c2scc(C(=O)O)c2n1` [compound 1950], for which the IC50 under setting [3] was 41.7 nM. On to `Cc1nc2cc(C(F)(F)F)c(N3CCN(CC(F)F)CC3)c(C#N)c2c(=O)n1CCOc1ccc(Cl)cc1-c1ccnc2c(C(=O)O)csc12` [compound 1239], for which the IC50 under setting [1] was below 50 nM and the IC50 under setting [3] was 18.2 nM.

Consider `Cc1cc(-c2c(C(F)(F)F)cc3nc(C)n(CCOc4ccc(Cl)cc4-c4cc(C)nc5c(C(=O)O)csc45)c(=O)c3c2C#N)cc(C)n1` [compound 465], for which the IC50 under setting [1] was below 50 nM and the IC50 under setting [2] is 15.1 nM. As to `Cc1c(F)c2cc(C(F)(F)F)cc(C#N)c2c(=O)n1CCOc1ccc(Cl)cc1-c1ccnc2c(C(=O)O)csc12` [compound 262], the IC50 under setting [1] was below 50 nM. For `N#Cc1ccc2ncn(CCOc3ccc(Cl)cc3-c3cccc(C(=O)O)c3)c(=O)c2c1C#N` [compound 27], the IC50 is 50 to 1000 nM under setting [1] and 149 nM under setting [2]. For the compound `Cc1nc2cnc(N3CCN(CCC(F)(F)F)CC3)c(C#N)c2c(=O)n1CC#Cc1ccc(Cl)cc1-c1ccnc2c(C(=O)O)csc12` [compound 1353], the IC50 under setting [3] was 17.2 nM.
